Measurements from paper PMC4725915, “Ruthenium(II) Complexes with 2-Phenylimidazo[4,5-f][1,10]phenanthroline Derivatives that Strongly Combat Cisplatin-Resistant Tumor Cells” (Scientific Reports, 2016).

Key:
HeLa = assay: MTT cytotoxicity assay, HeLa; assay type: cell-based, human; settings: 48 h, mean ± SD of three experiments
Description: (§1) Compounds 1–4 were evaluated against three tumor cell lines derived from different tissues, including the cervix (HeLa), lung (A549) and cisplatin-resistant lung (A549R) tissues. For comparison, the cytotoxicity of cisplatin was also evaluated. As a control, the toxicities of the complexes were also tested against the normal human cell line (LO2).
(§2) The human cervix carcinoma cell line (HeLa), the lung carcinoma cell lines (A549 and A549R), and the human hepatocyte cell line (LO2) were obtained from the Experimental Animal Center at Sun Yat-Sen University (Guangzhou, China). The cells were maintained in Dulbecco’s modified Eagle’s medium (DMEM, Gibco BRL) or Roswell Park Memorial Institute 1640 (RPMI 1640, Gibco BRL) medium supplemented with 10% fetal bovine serum (FBS, Gibco BRL), 100 μg/mL streptomycin, and 100 U/mL penicillin (Gibco BRL) in a humidified incubator under 5% CO2 and 20% O2 at 37 °C. To maintain the resistant phenotype, A549R cells were incubated with 5 μM cisplatin and cultured in drug-free medium for at least a week before use.
(§3) The cytotoxicity of the ruthenium complexes and cisplatin were determined by an MTT assay. Briefly, cells were seeded into 96-well microtiter plates at 1 × 10^4 cells per well and grown overnight at 37 °C in a 5% CO2 incubator; then, different concentrations of the complexes in cell culture medium were added to the cultures. The plates were then incubated in an incubator for 48 h under the same conditions. The stock MTT dye solution (15 μL, 5 mg/mL) was added to each well. After 4 h of incubation, the cultures were removed and 150 μL of DMSO was added to each well. The optical density of each well was measured on a microplate spectrophotometer at a wavelength of 595 nm.

A549 = assay: MTT cytotoxicity assay, A549; assay type: cell-based, human; settings: A549, 48 h, mean ± SD of three experiments
Description: as §1, §2, §3

A549R = assay: MTT cytotoxicity assay, cisplatin-resistant A549R; assay type: cell-based, human; settings: 48 h, mean ± SD of three experiments
Description: as §1, §2, §3

LO2 = assay: MTT cytotoxicity assay, normal LO2 cells; assay type: cell-based; settings: LO2 normal human cell line, 48 h
Description: as §1, §2, §3

A549R MCTSs [1] = assay: Cytotoxicity test on 3D MCTSs (Cell TiterGlo ATP); assay type: cell-based, human; settings: A549R MCTSs (~400 μm in diameter), 48 h
Description: (§4) MCTSs were cultured using the liquid overlay method. A549R cells in the exponential growth phase were dissociated by a trypsin/EDTA solution to gain single-cell suspensions. A number of 3000 diluted A549R cells were transferred to 1.5% agarose-coated transparent 96-well plates with 200 μL of DMEM containing 10% serum. The single cells formed MCTS aggregates approximately 400 μm in diameter after three days with 5% CO2 and 20% O2 at 37 °C. After formation of the MCTSs, each MCTS in a 96-well plate was imaged with a phase contrast microscope (Zeiss Axio Observer D1, Germany) using 10× objective to monitor their color, integrity, diameter, and volume.
A549R MCTSs (diameters ≈400 μm) were treated by carefully replacing 50% of the medium with drug-supplemented standard medium using an eight-channel pipet. In parallel, 50% of the medium containing solvent was replaced with solvent-free medium for the untreated MCTSs. Three A549R MCTSs were treated per condition and drug concentration; the DMSO volume was less than 1% (v/v). The MCTSs were then allowed to incubate for another 48 h. The cytotoxicities of the Ru(II) complexes toward the MCTSs were measured using ATP concentrations with a Cell TiterGlo kit (Promega). After 30 min of incubation, the MCTSs were carefully transferred into black-sided, flat-bottomed 96-well plates (Corning) and mixed with a pipet for luminescence measurements on an Infinite M200 PRO instrument (TECAN).

[2] = Distribution coefficient (log Po/w), flask-shaking, n-octanol/phosphate buffer; assay type: physicochemical; settings: n-octanol / phosphate buffer pH 7.4, 37 °C; in words only (Figure S8)
Description: Distribution coefficients (log Po/w) were determined by liquid-liquid extraction between n-octanol (oil) and phosphate buffers (0.2 M, pH 7.4) with the flask-shaking method. N-Octanol and the buffer were mutually saturated with each other for at least 24 h before use. An aliquot of a ruthenium complex stock solution was added to the phosphate buffer concentrations at <10 mg/mL, and the mixture was shaken at 100 rpm for 24 h at 37 °C to allow for adequate partitioning. After the sample was centrifuged at 3000 rpm for 20 min, the aqueous layer was used for ruthenium analysis, and the Ru content in the aqueous layer was measured by ICP-MS and used to calculate the log Po/w.

[3] = test system: cancer cell lines (HeLa, A549, A549R); assay: MTT cytotoxicity, all tested cancer cell lines taken together; assay type: cell-based, human; settings: 48 h, read-out: IC50 toward all the tested cancer cell lines
Description: as §1, §3

A549R cells [4] = assay: Cell uptake study by ICP-MS; assay type: cell-based, human; settings: 2.0 μM, 12 h
Description: (§5) To understand the high sensitivity of cancer cells to Ru(II) complexes, the extent of cellular uptake was investigated with inductively coupled plasma mass spectrometry (ICP-MS) by treating the HeLa, A549, A549R and LO2 cell lines with 2.0 μM concentrations of the Ru(II) complexes and cisplatin for 12 h. […] In this study, the cellular uptake and lipophilicity were distinctly correlated and followed the order: 4 >3 >2 >1. Complex 4 had the best accumulation, but the amount of Ru in LO2 cells was far less than that in the three cancer lines, indicating selective accumulation and improved efficiency for treating cancer. Cisplatin was taken up more efficiently by the sensitive cell line (A549) than by the cisplatin-resistant cell line (A549R). […] However, less than 1.5% of the cellular platinum was accumulated in the mitochondrial fraction of the A549R cells. Therefore, complex 4 could function in a different manner than cisplatin in A549R cells, which would be an appropriate solution to combat cisplatin resistance in tumor cells.
The cells were plated at a density of 1 × 10^5 cells/mL in 10 mL of DMEM for 24 h at 37 °C under 5% CO2 and 20% O2, Ruthenium complexes (2.0 μM) and cisplatin were added to the culture medium and incubated for 12 h, and mixed with cold PBS and a trypsin-EDTA solution in a centrifuge tube for counting. Then, the nuclei and cytoplasm of the cells were extracted by using a Nuclear and Cytoplasmic Protein Extraction Kit (Life Technologies). The samples were digested in 20% HNO3 and 10% H2O2 at room temperature overnight. Each sample was then diluted with Milli-Q water to obtain 2% HNO3 sample solutions. Ruthenium contents were determined using inductively coupled plasma mass spectrometry (ICP-MS Thermo Elemental Co., Ltd.).

A549R cells [5] = assay: Subcellular distribution study by ICP-MS; assay type: cell-based, human; settings: 2.0 μM, 12 h
Description: as §5
A549R cells were plated at a density of 1 × 10^5 cells/mL in 10 mL of DMEM for 24 h at 37 °C under 5% CO2 and 20% O2. […] The ruthenium or platinum contents were determined using inductively coupled plasma mass spectrometry (ICP-MS Thermo Elemental Co., Ltd.).

A549R cells [6] = assay: Real-time cell growth and proliferation assay (xCELLigence); assay type: cell-based, human; settings: 100 μM
Description: In addition, a real-time cell growth and proliferation assay using an xCELLigence System was utilized to confirm the high toxicity of complex 4 on A549R cells. […] In contrast, A549R cells were killed by treatment with complex 4 in a concentration-dependent manner.
This experiment was performed using an xCELLigence RTCA DP system real time cell analyzer (Roche Diagnostics GmbH, Germany). In brief, 80 μL of cell culture media was added to each well of a 16-well plate (E-plate 16, Roche Diagnostics GmbH, Germany). The 16-well plates were then connected to the system and checked for suitable electrical contacts in the real time cell analyzer, and the background impedance was measured for 24 s. Meanwhile, the A549R cells were suspended in cell culture medium and adjusted to 5 × 10^4 cells/mL, and 100 μL of each cell suspension was added to each well of […]. Approximately 24 h after seeding, the A549R cells were in the logarithmic phase of growth, and a wide range of concentrations of complex 4 and cisplatin (100 μM) were added. The cells were automatically monitored every 15 min over 48 h by the xCELLigence system. Data were analyzed using RTCA software (version 1.2) that was supplied with the instrument.

A549R MCTSs [7] = assay: Growth inhibition of drug-treated MCTSs (size by imaging); assay type: cell-based, human; settings: 100 μM
Description: Traditional research on the efficacy of cancer drugs is usually performed in two-dimensional (2-D) cell cultures, which may not be a true indicator of the in vivo effectiveness of cancer treatments. This is in part due to the absence of cell-cell or cell-extracellular matrix interactions in 2-D cell models. Therefore, the development of cell culture models that can close the gap between conventional 2-D cell experiments and animal studies is necessary to study the cytotoxicity and anti-proliferative activities of drugs. Multicellular tumor spheroids (MCTSs) are heterogeneous cellular aggregates that have properties of solid tumors, such as nutrient and oxygen gradients, hypoxic/necrotic regions, cell-cell matrix interactions, and gene expression.
as §4, with “After formation of the MCTSs, each MCTS in a 96-well plate was imaged with a phase contrast microscope (Zeiss Axio Observer D1, Germany) using 10× objective to monitor their color, integrity, diameter, and volume.” left out

Molecule: Ru(phen)2(tbtfpip)(PF6)2 [Complex 3]
- IC50 (HeLa): 22.5 ± 3.3 µM
- IC50 (A549): 28.6 ± 2.6 µM
- IC50 (A549R): 32.2 ± 1.5 µM
- IC50 (LO2): 45.6 ± 3.8 µM
- IC50 (A549R MCTSs [1]): 60.6 ± 5.5 µM
- log Po/w [2]: moderate

Molecule: FC(F)(F)c1ccc(-c2nc3c4cccnc4c4ncccc4c3[nH]2)cc1.[Ru+2].c1cnc2c(c1)ccc1cccnc12.c1cnc2c(c1)ccc1cccnc12 [Complex 2]
- IC50 (HeLa): 55.4 ± 3.1 µM
- IC50 (A549): 43.4 ± 5.3 µM
- IC50 (A549R): 48.2 ± 2.7 µM
- IC50 (LO2): 75.8 ± 7.5 µM
- IC50 (A549R MCTSs [1]): 95.7 µM
- log Po/w [2]: moderate

Molecule: [Ru+2].c1ccc(-c2nc3c4cccnc4c4ncccc4c3[nH]2)cc1.c1cnc2c(c1)ccc1cccnc12.c1cnc2c(c1)ccc1cccnc12 [Complex 1, [Ru(phen)2(PIP)]^2+]
- IC50 (HeLa): > 100 µM
- IC50 (A549): > 100 µM
- IC50 (A549R): > 100 µM
- IC50 (LO2): > 100 µM
- IC50 (A549R MCTSs [1]): > 100 µM
- IC50 [3]: > 100 µM
- log Po/w [2]: negative

Molecule: N.N.[Cl][Pt][Cl] [cisplatin]
- IC50 (HeLa): 15.1 ± 2.1 µM
- IC50 (A549): 21.3 ± 3.3 µM
- IC50 (A549R): 142 ± 5.4 µM
- IC50 (LO2): 18.9 ± 2.6 µM
- IC50 (A549R MCTSs [1]): > 200 µM
- share of the compound taken up by A549R cells (A549R cells [4]; A549R): less than 1%
- platinum level in A549 cells relative to A549R cells (A549R cells [4]; A549 vs A549R): ca. 4 fold
- share of cellular metal accumulated in the mitochondrial fraction (A549R cells [5]): less than 1.5%
- effect on A549R cells compared to the control (xCELLigence) (A549R cells [6]): negative effect
- change in size of A549R MCTSs (A549R MCTSs [7]): increased with time
